The values that follow come from patent publication US20130252945A1, “AMORPHOUS BIOINORGANIC IONIC LIQUID COMPOSITIONS COMPRISING PHARMACEUTICALS” (priority 2012, published 2013).

In general, solubility refers to how much of the substance goes into solution per volume.

Where “and” joins values, the source holds several entries; their conditions need not be identical. Identical values can stand only once. Counter-ions that a name gives are not always drawn.

Data set [1] can be described thus: Storage under Ar, observation for crystalline domains over 6 months. The data set is classed as physicochemical. As to conditions: stored under Ar, observed over 6 months.
The nature of data set [2]: Viscosity (Viscolab 3000 viscometer). The data set is classed as physicochemical. The note with it: at 90° C. Here is the method:
(§1) Melting points of all purchased materials were determined in a capillary tube using a MeI-Temp apparatus (Barnstead/Thermo Scientific). NMR data sets were collected on a 300 MHz Bruker instrument using sample concentrations of 50 mM. Infrared spectra were measured using an Avatar 360 FT-IR ESP (ThermoElectron-Nicolet, Waltham, Mass.) equipped with a Smart DuraSamplIR horizontal attenuated total reflectance (HATR) accessory. Raman spectra were measured using a Thermo-Nicolet 470 FTIR with Nd:YAG laser excitation and HgCdTe detector. Viscosity was measured on 1 mL samples with a Viscolab 3000 viscometer (Cambridge Viscosity, Medford, Mass.). Samples were heated to 90° C., except when otherwise specified, and viscosity was recorded in 2 degree increments between 50 and 90° C. with 8 min equilibration at each temperature. Thermal characterization was carried out using a Q100 DSC and a Q500 TGA (both from TA Instruments, New Castle, Del.). DSC was performed using a 5-10 mg sample in a 40 μL aluminum crucible sealed in the glovebox. A temperature range from −60 to 150° C. was scanned twice, at ramp rates of 5° C./min and 10° C./min. TGA was performed under N2 atmosphere over a temperature range from 25-800° C. with a ramp rate of 20° C. per minute and a sample size of 10 mg.

Data set [3] has as its system Pseudomonas aeruginosa biofilms (clinical isolate from sputum). Kind of data set: Challenge of established biofilms (72 h) with test compound, CFU count. It is filed as cell-based. As to conditions: 6 h at 37° C.
Data set [4] is described as follows: Solubility in solvents (soluble / insoluble). As to conditions: organic solvent or mixture.
A short description of data set [5]: Decomposition temperature by TGA. The data set is classed as physicochemical. As to conditions: for Tdec (decomposition temperature): TGA under N2, 20° C. per minute. The protocol:
as §1

Data set [6] is classed as physicochemical. The note with it: 3 h incubation at a constant 120° C.
Data set [7] is described as follows: Solubility at 1 mM in unbuffered water by eye and UV-Vis after filtration. The note with it: unbuffered water (pH 6.5), by eye. It is filed as physicochemical. Here is the method: Solubility of phenoxybenzamine hydrochloride and phenoxybenzamine-HCl—(ZnCl2)2 at 1 mM in unbuffered water (pH 6.5) was evaluated by eye and by UV-Vis spectroscopy after filtration through a 0.45 μm syringe filter.

Data set [8] in a line: Shelf life by model-free isoconversional kinetic analysis of TGA data. The data set is classed as physicochemical. Here is the method:
Zinc(II) chloride (273 mg, 2 mmol) was added to a scintillation vial that had been heated, then cooled under vacuum and charged with dry argon. Phenoxybenzamine hydrochloride (340.3 mg, 1 mmol) was added to the vial with a stir bar and the mixture was degassed with stirring at 60° C. The vial was filled with argon, sealed with a cap, and stirred for 24 h at 80° C. to produce a clear, colorless glass. […] NMR spectra for ^1H and ^13C were obtained in d6-acetone. […] Spectra of phenoxybenzamine-HCl were performed with 0, 0.25, 0.5, 1.0, 1.5, 2.0, and 5.0 molar equivalents of ZnCl2 to observe this effect. Thermal decomposition after a 3 h incubation of the IL at a constant 120° C. was 2.7% of the starting mass. In contrast, the phenoxybenzamine hydrochloride starting material loses 38% of its mass after a similar incubation. The IL was soluble (>1 mM) in acetone, water and phosphate buffered to pH 6.0. The IL was insoluble (<1 mM) in toluene and tetrahydrofuran. […] The manufacturer's shelf life for 10 mg phenoxybenzamine hydrochloride tablets is 2 years, or 730 days, and the calculated value for solid phenoxybenzamine hydrochloride (5% decay at 20° C.) was 750 days (2.05 years), indicating good agreement of the calculation with actual shelf life. […]

The subject of data set [9] is Pseudomonas aeruginosa culture. Nature of the data set: Biofilm growth on IL-coated culture plates. The data set is classed as cell-based. As to conditions: 100 μL IL per well, counted after 72 h, limit of detection. Here is the method: (§2) A second example of clear, colorless antimicrobial films formed by compositions described herein was shown with an assay that involved coating culture plates with IL and observing the biofilm growth on the coated surface. […] Aliquots of 100 μL of either a Staphylococcus aureus culture, an E. coli culture, or a Pseudomonas aeruginosa culture were added to each coated well, the plate was fed with fresh media every 24 h, and cells were counted after 72 h, as described above. The number of cells in the treated wells was below the limit of detection of the assay of 1000 cfu/mL, as compared with normal cell counts for the LB control wells, indicating high antimicrobial efficacy of the IL coating. Because bacteria colonize a surface prior to barnacles and other organisms, proof of antibacterial effects is key to showing anti-biofouling potential in aquatic environments.

The subject of data set [10] is Staphylococcus aureus culture. Kind of data set: Biofilm growth on IL-coated culture plates. The note with it: 100 μL IL per well, counted after 72 h, limit of detection. It is filed as cell-based. The protocol:
as §2

The subject of the next data set is E. coli culture. Kind of data set: Biofilm growth on IL-coated culture plates. The data set is classed as cell-based. As to conditions: 100 μL IL per well, counted after 72 h, limit of detection. The protocol:
as §2

Regarding Ethambutol-(HCl)2—(ZnCl2)2, the “appearance of crystalline domains on storage” value (shortened to “appearance”) in [1] is listed as “no crystalline domains appeared”. The Viscosity in data set [2] was found to be 17350 cP.
In the case of `CC(C)(C)CC(C)(C)c1ccc(OCCOCC[N+](C)(C)Cc2ccccc2)cc1` [benzethonium chloride, Benzethonium chloride], the “viable dispersed cell count (conservative estimate)” value in [3] (78 mM in LB, formed precipitate) is ~5×10^4 cfu/mL.
With `CN1[C@@H]2CC[C@H]1CC(OC(=O)C(O)c1ccccc1)C2` (stereo partly drawn) [Homatropine-HCl—(ZnCl2)2], the solubility is above 1000 µM in data set [4] (dimethylsulfoxide) and below 1000 µM in [4] (toluene). For the same compound, the “ΔTdec (increase in decomposition temperature relative to HCl starting material)” value in data set [5] (TGA) was “+7.8 °C”. In addition, the “appearance” value in data set [1] is on record as “no crystalline domains appeared”.
On to Procainamide-HCl—(ZnCl2)2, for which the “Tdec (decomposition temperature)” value in data set [5] was determined as 291.0 °C. Besides, the “appearance” value in [1] is listed as “no crystalline domains appeared”.
The corresponding values for `CNC(=C[N+](=O)[O-])NCCSCc1ccc(CN(C)C)o1.Cl.[Cl][Zn][Cl].[Cl][Zn][Cl]` are 230.9 °C and “no crystalline domains appeared”.
For `CC(COc1ccccc1)N(CCCl)Cc1ccccc1` (stereo not drawn) [phenoxybenzamine hydrochloride, Phenoxybenzamine hydrochloride, reference compound], in [6], the “thermal decomposition (loss of starting mass)” value was found to be 38%.
As for `[Cl-].[Na+]` [NaCl], the “cell count of biofilm after challenge” value in [3] (5 M in LB, control for ionic strength) is on record as 1×10^6 cells.
Regarding `CCCC[N+]1(C)CCCC1.O=S(=O)([N-]S(=O)(=O)C(F)(F)F)C(F)(F)F` [BMP-NTf2, 1-butyl-1-methypyrrolidinium bistriflimide], the “cell count of biofilm after challenge” value in data set [3] (neat) is on record as 2×10^5.
For `CC(COc1ccccc1)N(CCCl)Cc1ccccc1.Cl.[Cl][Zn][Cl].[Cl][Zn][Cl]` (stereo not drawn) [phenoxybenzamine-HCl—(ZnCl2)2, Phenoxybenzamine-HCl—(ZnCl2)2], in data set [7], the “solubility in unbuffered water (appeared to completely dissolve)” value was ≥ 1 mM and ≥ 0.34 mg/mL. The “improvement of shelf life over solid phenoxybenzamine hydrochloride” value in data set [8] (at 20° C., 5% decomposition) is 7.7 fold. In addition, in [8] (compared with 4-day refrigerator shelf life), the “improvement of shelf life over standard formulation in syrup and propylene glycol” value came to 1500 fold. Also, in [6], the “thermal decomposition (loss of starting mass)” value was found to be 2.7%. The “appearance” value in [1] was “no crystalline domains appeared”.
For `CN(C)CCCN1c2ccccc2CCc2ccccc21.Cl.[Cl][Zn][Cl].[Cl][Zn][Cl]` [Imipramine-HCl—(ZnCl2)2], in data set [1], the “appearance” value was “no crystalline domains appeared”.
As to `[Cl-].[Cl-].[Zn+2]` [ZnCl2, Zinc(II) chloride], the “cell count of biofilm after challenge” value in [3] (1.8 M in LB) was 4×10^5.
`CC(C)(C)CC(C)(C)c1ccc(OCCOCC[N+](C)(C)Cc2ccccc2)cc1` [benzethonium-Cl—(ZnCl2)2, Benzethonium-Cl—(ZnCl2)2]: the “number of cells in treated (IL-coated) wells” value (in data set [9]; in data set [10]; in the data set with E. coli culture) was below 1000 cfu/mL each time.
